Results on three compounds are retold here after US8309685B2 (Celgene Avilomics Research, Inc., priority 2007, dated 2012).

pIC50: −log10 of the molar value. Read-outs that look alike come from different tables or passages of the source.

The target of data set [1] is T1, wild type HCV NS3/4A 1b protease enzyme (Hepatitis C virus genotype 1b, UniProt P26663).
T1 construct: 10× stocks of NS3/4A protease enzyme from Bioenza (Mountain View, Calif.); purchased Bioenza (Mountain View, Calif.)
As to the kind of experiment: biochemical. The data set is classed as biochemical. Conditions: read-out: Inhibition, WT; WT enzyme, FRET assay.

Data set [2] addresses T2, D168A mutant of the HCV NS3/4A 1b protease enzyme (Hepatitis C virus genotype 1b, UniProt P26663, D1194A).
T2 construct: 10× stocks of NS3/4A protease enzyme from Bioenza (Mountain View, Calif.); purchased Bioenza (Mountain View, Calif.)
The data set can be described thus: HCV Protease FRET Assay (IC50), D168A mutant. Format: biochemical.

Data set [3] has as its system cell line ET (luc-ubi-neo/ET), human Huh7 hepatoma cell line. The data set can be described thus: Method A: cytotoxicity in ET replicon cells (CytoTox-1). Format: cell-based. The conditions noted are these: concentration decreasing cell viability by 50%, 72 hr. In short, it runs like this:
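ET cells (Huh7 carrying luciferase HCV replicon), 5×10^3 cells/well, given six 3-fold compound concentrations in DMEM with 5% FBS. After 72 hr, while subconfluent, cell number was measured with CytoTox-1 reagent. Interferon alpha-2b served as positive control.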
Background: A replicon is a self-replicating genome or part of one, used to study replication in cells.

Data set [4] deals with HCV RNA replicon in cell line ET (luc-ubi-neo/ET), human Huh7 hepatoma. The data set can be described thus: Method A: HCV RNA replicon antiviral assay (luciferase, ET cell line). The data set is classed as cell-based, Hepatitis C virus. The conditions noted are these: Hepatitis C virus, Huh-7. In short, it runs like this: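 ET replicon cells (Huh7 carrying luciferase-reporter HCV replicon) plated at 5×10^3 cells/well and exposed 72 hr to six 3-fold drug concentrations in DMEM/5% FBS. Replicon luciferase gave EC50/EC90; CytoTox-1 cell counts gave IC50 (viability); […]. Interferon alpha-2b served as positive control.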

The target of data set [5] is T3, A156T mutant of the HCV NS3/4A 1b protease enzyme (Hepatitis C virus genotype 1b, UniProt P26663, A1182T).
T3 construct: 10× stocks of NS3/4A protease enzyme from Bioenza (Mountain View, Calif.); purchased Bioenza (Mountain View, Calif.)
As to the kind of experiment: HCV Protease FRET Assay (IC50_APP), A156T mutant. The data set is classed as biochemical.

Data set [6] has as its target T2, D168A mutant of the HCV NS3/4A 1b protease enzyme. The data set can be described thus: HCV Protease FRET Assay (IC50_APP), D168A mutant. The data set is classed as biochemical.
Setting [7] is: read-out: Inhibition, HCV D168A, D168A enzyme, FRET assay.
Where [8] appears, read: Replicon, assay of Example 22, 72 hr, read-out: Inhibition, Replicon.
The mark [9] stands for this setting: assay described in Example 22, read-out: Replicon (IC50).
Where [10] appears, read: apparent IC50, A156T mutant; read-out: IC50_APP, HCV A156T.
The mark [11] stands for this setting: apparent IC50, D168A mutant; read-out: IC50_APP, HCV D168A.

Broadly, the IC90 is the concentration at which the effect reaches the 90% level.

Take `C=CC(=O)NC[C@H](NC(=O)OC(C)(C)C)C(=O)N1C[C@H](Oc2cc(-c3ccccc3)nc3cc(OC)ccc23)C[C@H]1C(=O)N[C@]1(C(=O)NS(=O)(=O)c2ccccc2)C[C@H]1C=C` [Compound I-3, N-[(1,1-dimethylethoxy)carbonyl]-3-[(2-propenoyl)amino]-L-alanyl-(4R)-4-[(7-methoxy-2-phenyl-4-quinolinyl)oxy]-L-prolyl-1-amino-2-ethenyl-N-(phenylsulfonyl)-(1R,2S)-cyclopropanecarboxamide]: the pIC50 was above 8.00 in data set [1]; 7.35 in data set [2] (read-out: Comparative IC50 Values, D168A, biochemical assay); 7.00 to 8.00 in data set [2] (setting [7]); 7.00 to 8.00 in data set [4] (setting [8]); 7.70 in data set [4] (WT, cell-based assay, methods of the Examples, read-out: Comparative IC50 Values, WT); 7.00 to 8.00 in data set [4] (setting [9]). The pIC50 in data set [5] (setting [10]) and in data set [6] (setting [11]) was 5.00 to 6.00 each time. Moreover, the “Inhibition, Cytotoxicity” value in data set [3] is given as “E (IC50≧10,000 nM)”.
As to `C=C[C@@H]1C[C@]1(NC(=O)[C@@H]1C[C@@H](Oc2cc(-c3ccccc3)nc3cc(OC)ccc23)CN1C(=O)[C@H](CNC(=O)CCl)NC(=O)OC(C)(C)C)C(=O)NS(=O)(=O)c1ccccc1` [Compound I-7, N-[(1,1-dimethylethoxy)carbonyl]-3-[(chloroacetyl)amino]-L-alanyl-(4R)-4-[(7-methoxy-2-phenyl-4-quinolinyl)oxy]-L-prolyl-1-amino-2-ethenyl-N-(phenylsulfonyl)-(1R,2S)-cyclopropanecarboxamide], the pIC50 is above 8.00 in data set [1]; 7.00 to 8.00 in data set [2] (setting [7]); 7.00 to 8.00 in data set [4] (setting [8]); 7.00 to 8.00 in data set [4] (setting [9]); 6.00 to 7.00 in data set [5] (read-out: IC50_APP, HCV A156T; apparent IC50, A156T mutant); 6.00 to 7.00 in data set [6] (read-out: IC50_APP, HCV D168A; apparent IC50, D168A mutant). Moreover, in data set [3], the “Inhibition, Cytotoxicity” value is “E (IC50≧10,000 nM)”. The compound further registered an IC90 in data set [4] (assay described in Example 22) of 100 to 1000 nM.
For the compound `C=CC(=O)NCC(=O)N1C[C@H](Oc2cc(-c3ccccc3)nc3cc(OC)ccc23)C[C@H]1C(=O)N[C@]1(C(=O)NS(=O)(=O)c2ccccc2)C[C@H]1C=C` [Compound I-27, (2S,4R)-1-(2-acrylamidoacetyl)-4-(7-methoxy-2-phenylquinolin-4-yloxy)-N-((1R,2S)-1-(phenylsulfonylcarbamoyl)-2-vinylcyclopropyl)pyrrolidine-2-carboxamide], the pIC50 was above 8.00 in data set [1]; 7.00 to 8.00 in data set [2] (setting [7]); 7.00 to 8.00 in data set [4] (setting [8]); 6.00 to 7.00 in data set [4] (setting [9]); 6.00 to 7.00 in data set [5] (setting [10]); 6.00 to 7.00 in data set [6] (setting [11]). Besides, the “Inhibition, Cytotoxicity” value in data set [3] was “D (IC50>1000 nM and <10,000 nM)”. Also, the IC90 in data set [4] (assay described in Example 22) fell in the range of 100 to 1000 nM.
